# Test results as given in patent US20070213301A1 (ACHILLION PHARMACEUTICALS, INC., priority 2006, published 2007).
# System: HCV replicon
# Experiment: HCV replicon replication assay (NPTII ELISA)
# Assay type: cell-based, Hepatitis C virus (Huh-7 cells)
# Conditions: Hepatitis C virus, Huh-7, 72 h, inhibition of HCV replicon replication in Huh-7 HCV replicon-containing cells, three days incubation, NPT level by ELISA; read-out: EC50
# Protocol: Compounds claimed herein are tested for the ability to inhibit viral replication of the Hepatitis C replicon in cultured cells in which the HCV replicon construct has been incorporated. The HCV replicon system was described by Bartenschlager, et. al (Science, 285, pp. 110-113 (1999)). The replicon system is predictive of in vivo anti-HCV activity; compounds that are active in humans uniformly evidence activity in the replicon assay.
# In this assay HCV replicon containing cells are treated with different concentrations of the test compound to ascertain the ability of the test compound to suppress replication of the HCV replicon. As a positive control, HCV replicon-containing cells are treated with different concentrations of interferon alpha, a known inhibitor of HCV replication. The replicon assay system includes Neomycin Phosphotransferase (NPT) as a component of the replicon itself in order to detect the transcription of replicon gene products in the host cell. Cells in which the HCV replicon is actively replicating have high levels of NPT; the level of NPT is proportional to HCV replication. […] The NPT level of each sample is measured using a captured ELISA.
# The HCV replicon contains, 5′-3′, the HCV-IRES, the neomycin phosphotransferase (neo) gene, the IRES of encephalomyocarditis virus, which directs translation of HCV sequences NS3 to NS5B, and the 3′-NTR. The sequence of the HCV replicon has been deposited in GenBank (Accession no. AJ242652).
# The replicon is transfected into Huh-7 cells using standard methods such as electroporation.
# The cells are then seeded onto 96-well plates at a density of 6000-7500 cells/100 microliters/well (6-7.5×10^5 cells/10 ml/plate). The plates are then incubated at 37° C. in a 5% CO2 incubator.
# HCV replicon-containing cells are rinsed with once PBS once; 2 mls of trypsin are then added. Cells are incubated at 37° C. in a 5% CO2 incubator for 3-5 minutes. 10 mls of complete medium is added to stop the reaction. Cells are blown gently, put into a 15 ml tube, and spun at 1200 rpm for four minutes. The trypsin/medium solution is removed and 5 mls of medium (500 ml DMEM (high glucose)) from BRL catalog #12430-054; 50 mls 10% FBS, 5% Geneticin G418 (50 mg/ml, BRL catalog #10131-035), 5 ml MEM non-essential amino acids (100× BRL #11140-050) and 5 ml pen-strep (BRL #15140-148) is added. The cells and media are mixed carefully
# Cells are plated with screening medium (500 ml DMEM (BRL #21063-029), 50 ml FBS (BRL #10082-147) and 5 ml MEM non-essential amino acid (BRL #11140-050) at 6000-7500 cells/100 μl/well of 96 well plate (6-7.5×10^5 cells/10 ml/plate). Plates are placed into 37° C. 5% CO2 incubator overnight.
# The following morning, drugs (test compounds or interferon alpha) are diluted in 96 well U bottom plates with media or DMSO/media, depending on the final concentration chosen for screening. Generally for 6 concentrations of each test compounds ranging from 10 micromolar to 0.03 micromolar are applied. 100 μl of the test compound dilution is placed in wells of the 96 well plate containing the HCV replicon cells. Media without drug is added to some wells as a negative controls. DMSO is known to affect cell growth. Therefore, if drugs diluted in DMSO are used, all wells, including negative control (media only) and positive control (interferon alpha) wells, must contain the same concentration of DMSO, for single dose screening. The plates are incubated at 37° C. in a humidified 5% CO2 environment for three days.
# On day four, the NTPII assay is quantitated. The medium is poured from the plates and the plates are washed once in 200 μl of PBS. The PBS is then decanted and the plates tapped in a paper towel to remove any remaining PBS. Cells are fixed in situ with 100 μl/well of pre-cooled (−20° C.) methanol:acetone (1:1) and the plates are placed at −20° C. for 30 minutes.
# The fixing solution is poured from the plates and the plates allowed to air-dry completely (approximately one hour). […]
row,SMILES,EC50
1,"CCCCCOc1ccc(N(C(=O)OC)c2nc(-c3ccc(F)c(F)c3)cs2)cc1C(F)(F)F [Compound 56, methyl 4-(3,4-difluorophenyl)thiazol-2-yl(4-(pentyloxy)-3-(trifluoromethyl)phenyl)carbamate]",< 1 µM
2,"CCCCCOc1ccc(N(C(=O)C2CCCCC2)c2nc(-c3cccnc3)cs2)cc1C(F)(F)F [Compound 32, N-(4-(pentyloxy)-3-(trifluoromethyl)phenyl)-N-(4-(pyridin-3-yl)thiazol-2-yl)cyclohexanecarboxamide]",< 1 µM
3,"CCCCCCCCOc1ccc(N(C(C)=O)c2nc(-c3cccnc3)c(F)s2)cc1C(F)(F)F [Compound 177, N-(5-fluoro-4-(pyridin-3-yl)thiazol-2-yl)-N-(4-(octyloxy)-3-(trifluoromethyl)phenyl)acetamide]",< 1 µM
4,"CCCCCN(C)c1ccc(N(C(=O)c2cc(C)on2)c2nc(-c3cccnc3)cs2)cc1C(F)(F)F [Compound 52, 5-methyl-N-(4-(methyl(pentyl)amino)-3-(trifluoromethyl)phenyl)-N-(4-(pyridin-3-yl)thiazol-2-yl)isoxazole-3-carboxamide]",< 1 µM
5,"CCCCCOc1ccc(N(C(=O)COC(C)=O)c2nc(-c3cccnc3)cs2)cc1C(F)(F)F [Compound 33, 2-oxo-2-((4-(pentyloxy)-3-(trifluoromethyl)phenyl)(4-(pyridin-3-yl)thiazol-2-yl)amino)ethyl acetate]",< 1 µM
6,"CCCCCCCOc1ccc(N(C(=O)c2cc(C)on2)c2nc(-c3nc4ccccc4s3)cs2)cc1 [Compound 92, N-(4-(benzo[d]thiazol-2-yl)thiazol-2-yl)-N-(4-(heptyloxy)phenyl)-5-methylisoxazole-3-carboxamide]",1 to 10 µM
7,"CC(C)COc1ccc(N(C(N)=O)c2nc(-c3ccc(O)c(C(N)=O)c3)cs2)cc1C(F)(F)F [Compound 148, 2-hydroxy-5-(2-(1-(4-isobutoxy-3-(trifluoromethyl)phenyl)ureido)thiazol-4-yl)benzamide]",< 1 µM
8,"CCCCCOc1ccc(N(C)c2nc(C(=O)Nc3ccc(C#N)cc3)cs2)cc1C(F)(F)F [Compound 5, N-(4-cyanophenyl)-2-(methyl(4-(pentyloxy)-3-(trifluoromethyl)phenyl)amino)thiazole-4-carboxamide]",> 10 µM
9,"CCCCCN(C)c1ccc(N(C(N)=O)c2nc(-c3ccc(C)nc3)cs2)cc1C(F)(F)F [Compound 139, 1-(4-(methyl(pentyl)amino)-3-(trifluoromethyl)phenyl)-1-(4-(6-methylpyridin-3-yl)thiazol-2-yl)urea]",< 1 µM
10,"CCCCCOc1ccc(N(C(N)=O)c2nc(-c3ccc(F)cc3)cs2)cc1F [Compound 111, 1-(3-fluoro-4-(pentyloxy)phenyl)-1-(4-(4-fluorophenyl)thiazol-2-yl)urea]",< 1 µM
11,"CCCCOc1ccc(N(C(N)=O)c2nc(-c3ccc4c(c3)NC(=O)CO4)cs2)cc1C(F)(F)F [Compound 134, 1-(4-butoxy-3-(trifluoromethyl)phenyl)-1-(4-(3-oxo-3,4-dihydro-2H-benzo[b][1,4]oxazin-6-yl)thiazol-2-yl)urea]",1 to 10 µM
12,"CCCCCCCCOc1ccc(N(C(N)=O)c2nc(-c3ccc(F)cc3)cs2)cc1 [Compound 61, 1-(4-(4-fluorophenyl)thiazol-2-yl)-1-(4-(octyloxy)phenyl)urea]",1 to 10 µM
13,"CCCCCCCCOc1ccc(N(C(N)=O)c2nc(-c3ccncc3)cs2)cc1 [Compound 80, 1-(4-(octyloxy)phenyl)-1-(4-(pyridin-4-yl)thiazol-2-yl)urea]",> 10 µM
14,"CCCCCOc1ccc(N(C(=O)CO)c2nc(-c3cccnc3)cs2)cc1C(F)(F)F [Compound 62, 2-hydroxy-N-(4-(pentyloxy)-3-(trifluoromethyl)phenyl)-N-(4-(pyridin-3-yl)thiazol-2-yl)acetamide]",< 1 µM
15,"NC(=O)N(c1ccc(OCC2CCCCC2)c(F)c1)c1nc(-c2ccc3c(c2)NC(=O)CO3)cs1 [Compound 116, 1-(4-(cyclohexylmethoxy)-3-fluorophenyl)-1-(4-(3-oxo-3,4-dihydro-2H-benzo[b][1,4]oxazin-6-yl)thiazol-2-yl)urea]",> 10 µM
16,"CCCCOc1ccc(N(C(N)=O)c2nc(-c3ccc(O)c(C(N)=O)c3)cs2)cc1C(F)(F)F [Compound 133, 5-(2-(1-(4-butoxy-3-(trifluoromethyl)phenyl)ureido)thiazol-4-yl)-2-hydroxybenzamide]",< 1 µM
17,"CCCCCOc1ccc(N(C(=O)C(=O)OC)c2nc(-c3ccc(F)cc3F)cs2)cc1C(F)(F)F [Compound 37, methyl 2-((4-(2,4-difluorophenyl)thiazol-2-yl)(4-(pentyloxy)-3-(trifluoromethyl)phenyl)amino)-2-oxoacetate]",< 1 µM
18,"CCCCCCCCOc1ccc(N(C(=O)CC(=O)OC)c2nc(-c3ccc(F)cc3)cs2)cc1 [Compound 44, methyl 3-((4-(4-fluorophenyl)thiazol-2-yl)(4-(octyloxy)phenyl)amino)-3-oxopropanoate]",< 1 µM
19,"CCCCCOc1ccc(N(C(C)=O)c2nc(-c3cccnc3)cs2)cc1F [Compound 24, N-(3-fluoro-4-(pentyloxy)phenyl)-N-(4-(pyridin-3-yl)thiazol-2-yl)acetamide]",< 1 µM
20,"CCCCCCCCc1ccc(N(C(=O)OCCN(C)C)c2nc(-c3cccnc3)c(F)s2)cc1C(F)(F)F [Compound 179, 2-(dimethylamino)ethyl 5-fluoro-4-(pyridin-3-yl)thiazol-2-yl(4-octyl-3-(trifluoromethyl)phenyl)carbamate]",< 1 µM
21,"CCCCCCOc1ccc(N(C(N)=O)c2nc(-c3ccc(F)cc3)cs2)cc1 [Compound 122, 1-(4-(4-fluorophenyl)thiazol-2-yl)-1-(4-(hexyloxy)phenyl)urea]",< 1 µM
22,"CCCCCCCCc1ccc(N(C(N)=O)c2nc(-c3cccnc3)c(F)s2)cc1C(F)(F)F [Compound 178, 1-(5-fluoro-4-(pyridin-3-yl)thiazol-2-yl)-1-(4-octyl-3-(trifluoromethyl)phenyl)urea]",< 1 µM
23,"CCCCCCCCc1ccc(N(C(C)=O)c2nc(-c3cccnc3)c(F)s2)cc1C(F)(F)F [Compound 175, N-(5-fluoro-4-(pyridin-3-yl)thiazol-2-yl)-N-(4-octyl-3-(trifluoromethyl)phenyl)acetamide]",< 1 µM
24,"CCCCCCCCOc1ccc(N(C(=O)C(=O)OCC)c2nc(-c3cccnc3)cs2)cc1 [Compound 66, ethyl 2-((4-(octyloxy)phenyl)(4-(pyridin-3-yl)thiazol-2-yl)amino)-2-oxoacetate]",< 1 µM
25,"CCCCCOc1ccc(N(C(N)=O)c2nc(-c3ccc(F)c(F)c3)cs2)cc1F [Compound 113, 1-(4-(3,4-difluorophenyl)thiazol-2-yl)-1-(3-fluoro-4-(pentyloxy)phenyl)urea]",1 to 10 µM
26,"CCCCCCCCOc1ccc(N(C(=O)CO)c2nc(-c3cccnc3)cs2)cc1C(F)(F)F [Compound 159, 2-hydroxy-N-(4-(octyloxy)-3-(trifluoromethyl)phenyl)-N-(4-(pyridin-3-yl)thiazol-2-yl)acetamide]",< 1 µM
27,"CCCCCOc1ccc(N(C(=O)C(=O)OC)c2nc(-c3cccnc3)cs2)cc1C(F)(F)F [Compound 28, methyl 2-oxo-2-((4-(pentyloxy)-3-(trifluoromethyl)phenyl)(4-(pyridin-3-yl)thiazol-2-yl)amino)acetate]",< 1 µM
